According to paper PMC7563222, “Recognition of Dimeric Lewis X by Anti-Dimeric Le^x Antibody SH2” (Vaccines, 2020):
Read-outs that look alike come from different tables or passages of the source.

Legend:
mAb SH2 = test: Competitive ELISA: inhibition of mAb SH2 binding to immobilized (DimLe^x)16-BSA conjugate 1; design: species or system mouse; conditions: for IC50: DimLe^x-BSA conjugate 1 immobilized (5 μg/mL), SH2 ascites 1:500; for ∆(∆G): RT ln([I1]/[I2]), reference inhibitor DimLe^x 6; for ∆(∆G) / SH2 ∆(∆G): T = 296 K; for SH2 ∆(∆G): reference inhibitor Le^x 7, --- = No inhibition
Method: A MaxiSorp NUNC 96-well ELISA microtiter plate was coated with a dilution of the (DimLe^x)16-BSA conjugate 1 (100 μL per well, 5 μg/mL) in a 10 mM PBS solution at pH 7.1. The plate was covered with sealing tape and incubated at 4 °C overnight. The antigen solution was discarded, and the plate was washed (using ELx405 auto plate washer, 5 × 15 s) with a 10 mM PBS buffer at pH 7.3 containing 0.05% Tween 20. In 1.5 mL Eppendorf tubes, 175 μL dilutions of competitors (concentration ranging from 0.632 mg/mL to 2 mg/mL in 10 mM PBS-0.05% Tween 20) were incubated for 1 h at 23 °C (in the dark) with 175 μL of a solution of SH2 ascites (1:500 dilution in 10 mM PBS-0.05% Tween 20). At the same time, the plate was blocked with 0.05% skim milk in PBS (300 μL per well). After 1 h of incubation at 37 °C, the plate was washed with 10 mM PBS-0.05% Tween 20. Each well then received 100 μL of the competitor-mAb mixture. Three wells were used as the blank control in which the competitor-mAb mixture was not added, rather received 100 μL of 10 mM PBS-0.05% Tween 20. The plate was incubated for 3 h at 23 °C (in the dark). The plate was subsequently washed using the plate washer with PBS-0.05% Tween 20. A dilution of commercially available horseradish peroxidase labeled goat anti-mouse antibody (1:5000 in 10 mM PBS-0.05% Tween 20, 100 μL per well) was added to each well. After 1 h of incubation at 23 °C (in the dark), the plate was washed with 10 mM PBS-0.05% Tween 20. A solution of the chromogenic substrate TMB (100 μL per well) was added. After a 10 min incubation period at 23 °C (in the dark), 100 μL of 5% Phosphoric Acid stop solution was added to the wells to quench the reaction. The absorbance values were read at 450 nm employing a PowerWave XS plate reader. All samples were prepared in triplicate. The absorbance values were plotted as the percentage inhibition against an increasing concentration of competitor, calculated using wells containing no competitor as the reference point. The values were fitted to a 4-parameter logistics sigmoidal equation: y = y0 + a/[1 + (x/x0)^b] using Sigma Plot 10.0. The concentration of each analogue required for 50% inhibition (IC50) of Le^x-SH2 binding and the corresponding changes in free energy Δ(ΔG) of binding (kcal·mol^−1) using DimLe^xOPr 6 (Table 1) or Le^xOMe 7 (Table 2) as the reference were calculated.

mAb SH1 = conditions: cited from earlier work; for SH1 ∆(∆G): Le^x-BSA conjugate 4 immobilized, Le^x trisaccharide 7 as reference, --- = No inhibition
mAb 1G5F6 = system: mAb 1G5F6; design: method as in PMID 31666308; conditions: DimLe^x-BSA conjugate 1 immobilized; Le^x trisaccharide 7 as reference; --- = No inhibition; cited from earlier work
[1] = Table 1, read-out: IC50 (concentration of inhibitor required for 50% inhibition)

SMILES	IC50 (mAb SH2; [1])	∆(∆G) (mAb SH2; Table 1)	SH1 ∆(∆G) (mAb SH1)	1G5F6 ∆(∆G) (mAb 1G5F6)	Inhibition of SH2 binding to (DimLe^x)16-BSA by soluble oligosaccharide (in words) (mAb SH2)	IC50 (mAb SH2; Table 2, read-out: SH2 IC50)	other results
CCCO[C@@H]1O[C@H](CO)[C@@H](O[C@@H]2O[C@H](CO)[C@H](O)[C@H](O[C@@H]3O[C@H](CO)[C@@H](O[C@@H]4O[C@H](CO)[C@H](O)[C@H](O)[C@H]4O)[C@H](O[C@@H]4O[C@@H](C)[C@@H](O)[C@@H](O)[C@@H]4O)[C@H]3NC(C)=O)[C@H]2O)[C@H](O[C@@H]2O[C@@H](C)[C@@H](O)[C@@H](O)[C@@H]2O)[C@H]1NC(C)=O [compound 6, DimLe^x propyl hexasaccharide]	503 µM	0 kcal/mol	–	–	–	–	–
CO[C@@H]1O[C@H](CO)[C@@H](O[C@@H]2O[C@H](CO)[C@H](O)[C@H](O)[C@H]2O)[C@H](O[C@@H]2O[C@@H](C)[C@@H](O)[C@@H](O)[C@@H]2O)[C@H]1NC(C)=O [compound 7, Le^x methyl glycoside]	47 µM	-1.4 kcal/mol	0 kcal/mol	0 kcal/mol	–	–	SH2 ∆(∆G) (mAb SH2; Table 2): 0 kcal/mol
CC(=O)NC1C(OC2C(O)C(O)OC(CO)C2O)OC(CO)C(OC2OC(CO)C(O)C(O)C2O)C1OC1OC(C)C(O)C(O)C1O (stereo not shown) [compound 9, Lex[1,3]Gal, reference compound]	529 µM	0.03 kcal/mol	–	–	–	–	–
CO[C@@H]1O[C@H](CO)[C@@H](O[C@@H]2O[C@H](CO)[C@H](O)[C@H](O[C@@H]3O[C@H](CO)[C@@H](O)[C@H](O)[C@H]3NC(C)=O)[C@H]2O)[C@H](O[C@@H]2O[C@@H](C)[C@@H](O)[C@@H](O)[C@@H]2O)[C@H]1NC(C)=O [compound 10, GlcNAc[1,3″]Le^x]	18600 µM	2.1 kcal/mol	–	–	–	–	–
CCCCCCO[C@@H]1O[C@H](CO)[C@@H](O[C@@H]2O[C@H](CO)[C@H](O)[C@H](O[C@@H]3O[C@H](CO)[C@@H](O[C@@H]4O[C@H](CO)[C@H](O)[C@H](O)[C@H]4O)[C@H](O)[C@H]3NC(C)=O)[C@H]2O)[C@H](O[C@@H]2O[C@@H](C)[C@@H](O)[C@@H](O)[C@@H]2O)[C@H]1NC(C)=O [compound 13, LacNAc[1,3″]Lex]	–	–	–	–	lack of competitive binding	–	–
CCCCCO[C@@H]1O[C@H](CO)[C@@H](O[C@@H]2O[C@H](CO)[C@H](O)[C@H](O[C@@H]3O[C@H](CO)[C@@H](O)[C@H](O[C@@H]4O[C@@H](C)[C@@H](O)[C@@H](O)[C@@H]4O)[C@H]3NC(C)=O)[C@H]2O)[C@H](O[C@@H]2O[C@@H](C)[C@@H](O)[C@@H](O)[C@@H]2O)[C@H]1NC(C)=O [compound 14, Fuc[1,3,]GlcNAc[1,3″]Le^x]	–	–	–	–	lack of competitive binding	–	–
CO[C@@H]1O[C@H](CO)[C@@H](O[C@@H]2O[C@H](CO)[C@H](O)[C@H](O)[C@H]2O)[C@H](O[C@@H]2O[C@@H](C)[C@@H](O)[C@@H](O)[C@@H]2O)[C@H]1O [compound 15, LacLe^x]	–	–	0.2 kcal/mol	2.5 kcal/mol	no inhibition	> 1800 µM	–
COC1OC(CO)C(OC2OC(CO)C(O)C(O)C2O)C(OC2OC(C)C(O)C(O)C2O)C1NC(C)=O (stereo not shown) [compound 16, GlcLe^x]	–	–	–	2.7 kcal/mol	no inhibition	> 1800 µM	Binding by SH1 (in words) (mAb SH1; galactose of Le^x replaced by glucose): total loss of binding
CO[C@@H]1O[C@H](CO)[C@@H](O[C@@H]2O[C@H](CO)[C@H](O)[C@H](O)[C@H]2O)[C@H](O[C@@H]2O[C@@H](C)[C@H](O)[C@@H](O)[C@H]2O)[C@H]1NC(C)=O [compound 17, RhaLe^x]	–	–	1.1 kcal/mol	1.6 kcal/mol	–	827 µM	SH2 ∆(∆G) (mAb SH2; Table 2): 1.7 kcal/mol
